In patent US20260285850A1, “SUBSTITUTED OXAZOLIDINONES AND IMIDAZOLINONES AS HERBICIDES” (FMC CORPORATION, priority 2023, published 2026):

Experiments:
Format in all cases: in vivo
[1] = system: barnyardgrass (Echinochloa crus-galli); test: Test A preemergence soil spray, visual injury rating 0-100; conditions: 10 days, 0 = no effect, 100 = complete control
Summary of the method: (§1)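 Preemergence directed soil spray or postemergence spray (2-10 cm, 1-2 leaf); loam/sand mix; compound in non-phytotoxic solvent + surfactant. Greenhouse, 10 d. Visual injury vs untreated, 0 = none, 100 = complete control.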

[2] = system: kochia (Bassia scoparia); test: as above; conditions: 10 days, 0 = no effect, 100 = complete control
Summary of the method: as §1

[3] = system: green foxtail (Setaria viridis); test: as above; conditions: 10 days, 0 = no effect, 100 = complete control
Summary of the method: as §1

[4] = system: corn (Zea mays); test: as above; conditions: 10 days, 0 = no effect, 100 = complete control
Summary of the method: as §1

[5] = system: ryegrass, Italian (italian ryegrass, Lolium multiflorum); test: as above; conditions: 10 days, 0 = no effect, 100 = complete control
Summary of the method: as §1

[6] = system: palmer (palmer amaranth, palmer pigweed, Amaranthus palmeri); test: as above; conditions: 10 days, 0 = no effect, 100 = complete control
Summary of the method: as §1

[7] = system: blackgrass (Alopecurus myosuroides); test: as above; conditions: 10 days, 0 = no effect, 100 = complete control
Summary of the method: as §1

[8] = system: ragweed (common ragweed, Ambrosia artemisiifolia); test: as above; conditions: 10 days, 0 = no effect, 100 = complete control
Summary of the method: as §1

[9] = system: wheat (Triticum aestivum); test: as above; conditions: 10 days, 0 = no effect, 100 = complete control
Summary of the method: as §1

[10] = system: oat, wild (wild oat, Avena fatua); test: as above; conditions: 10 days, 0 = no effect, 100 = complete control
Summary of the method: as §1

[11] = system: soybean (Glycine max); test: as above; conditions: 10 days, 0 = no effect, 100 = complete control
Summary of the method: as §1

[12] = system: ducksalad (Heteranthera limosa); test: Test B flooded paddy test, visual plant response rating 0-100; conditions: 250 g ai/ha, Flood, applied to paddy water, evaluated after 13 days
Summary of the method: (§2)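 Treatment occurs at the 2-leaf stage by adding compound to floodwater standing 3 cm above the soil, a level kept for the whole test. Plants stay in the greenhouse 13 days before visual comparison with controls.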

[13] = system: sedge, umbrella (small-flower umbrella sedge, Cyperus difformis); test: as above; conditions: 250 g ai/ha, Flood, applied to paddy water, evaluated after 13 days
Summary of the method: as §2

[14] = system: rice (Oryza sativa); test: as above; conditions: 250 g ai/ha, Flood, applied to paddy water, evaluated after 13 days
Summary of the method: as §2

[15] = system: barnyardgrass (Echinochloa crusgalli); test: as above; conditions: 250 g ai/ha, Flood, applied to paddy water, evaluated after 13 days
Summary of the method: as §2

[16] = system: barnyardgrass (Echinochloa crus-galli); test: Test A postemergence application, visual injury rating 0-100; conditions: 10 days
From the text: (§3) Seeds of plant species selected from barnyardgrass (Echinochloa crus-galli), blackgrass (Alopecurus myosuroides), corn (Zea mays), foxtail, giant (giant foxtail, Setaria faberi), green foxtail (Setaria viridis), goosegrass (Eleusine indica), kochia (Bassia scoparia), oat, wild (wild oat, Avena fatua), palmer (palmer amaranth, palmer pigweed, Amaranthus palmeri), ragweed (common ragweed, Ambrosia artemisiifolia), ryegrass, Italian (italian ryegrass, Lolium multiflorum), soybean (Glycine max) and wheat (Triticum aestivum) were planted into a blend of loam soil and sand and treated preemergence with a directed soil spray using test chemicals formulated in a non-phytotoxic solvent mixture which included a surfactant.
(§4) At the same time, plants selected from these crops and weed species and also galium (catchweed bedstraw, Galium aparine) and horseweed (Erigeron canadensis) were planted in pots containing the same blend of loam soil and sand and treated with postemergence applications of test chemicals formulated in the same manner. Plants ranged in height from 2 to 10 cm and were in the one- to two-leaf stage for the postemergence treatment. Treated plants and untreated controls were maintained in a greenhouse for 10 days, after which time all treated plants were compared to untreated controls and visually evaluated for injury. Plant response ratings, summarized in Table A, are based on a 0 to 100 scale where 0 is no effect and 100 is complete control. A dash (-) response means no test result.

[17] = system: kochia (Bassia scoparia); test: as above; conditions: 10 days
From the text: as §3, §4

[18] = system: green foxtail (Setaria viridis); test: as above; conditions: 10 days
From the text: as §3, §4

[19] = system: corn (Zea mays); test: as above; conditions: 10 days
From the text: as §3, §4

[20] = system: ryegrass, Italian (italian ryegrass, Lolium multiflorum); test: as above; conditions: 10 days
From the text: as §3, §4

[21] = system: palmer (palmer amaranth, palmer pigweed, Amaranthus palmeri); test: as above; conditions: 10 days
From the text: as §3, §4

[22] = system: blackgrass (Alopecurus myosuroides); test: as above; conditions: 10 days
From the text: as §3, §4

[23] = system: horseweed (Erigeron canadensis); test: as above; conditions: 10 days
From the text: as §3, §4

[24] = system: ragweed (common ragweed, Ambrosia artemisiifolia); test: as above; conditions: 10 days
From the text: as §3, §4

[25] = system: wheat (Triticum aestivum); test: as above; conditions: 10 days
From the text: as §3, §4

[26] = system: oat, wild (wild oat, Avena fatua); test: as above; conditions: 10 days
From the text: as §3, §4

[27] = system: soybean (Glycine max); test: as above; conditions: 10 days
From the text: as §3, §4

[28] = 31 g ai/ha, postemergence, 0 = no effect, 100 = complete control
[29] = Postemergence, 125 g ai/ha, 0 is no effect, 100 is complete control

In the case of `CC(C)OC(=O)C1CCC(NC(=O)C2(C)CN(c3cc(F)cc(F)c3)C(=O)O2)C1` (centres unmarked) [Compound 12], the “Barnyardgrass plant response rating (0-100)” value ([1]; 31 g ai/ha) is reported as 0, the “Barnyardgrass plant response rating (0 to 100 scale)” value ([1]; 125 g ai/ha) is reported as 90 and the “Kochia plant response rating (0-100)” value ([2]; 31 g ai/ha) is reported as 20. The “Kochia plant response rating (0 to 100 scale)” value ([2]; 125 g ai/ha) was 70, the “Foxtail, Green plant response rating (0-100)” value ([3]; 31 g ai/ha) was 0 and the “Foxtail, Green plant response rating (0 to 100 scale)” value ([3]; 125 g ai/ha) was 50. The “Corn plant response rating (0-100)” value ([4]; 31 g ai/ha) was 0, the “Corn plant response rating (0 to 100 scale)” value ([4]; 125 g ai/ha) was 50 and the “Ryegrass, Italian plant response rating (0-100)” value ([5]; 31 g ai/ha) was 0. The “Ryegrass, Italian plant response rating (0 to 100 scale)” value ([5]; 125 g ai/ha) was 90, the “Amaranth, Palmer plant response rating (0-100)” value ([6]; 31 g ai/ha) was 0 and the “Amaranth, Palmer plant response rating (0 to 100 scale)” value ([6]; 125 g ai/ha) was 0. The “Blackgrass plant response rating (0-100)” value ([7]; 31 g ai/ha) was 20, the “Blackgrass plant response rating (0 to 100 scale)” value ([7]; 125 g ai/ha) was 80 and the “Ragweed plant response rating (0-100)” value ([8]; 31 g ai/ha) was 0. For the same compound, the “Ragweed plant response rating (0 to 100 scale)” value ([8]; 125 g ai/ha) was 0, the “Wheat plant response rating (0-100)” value ([9]; 31 g ai/ha) was 50 and the “Wheat plant response rating (0 to 100 scale)” value ([9]; 125 g ai/ha) was 90. For the same compound, the “Oat, Wild plant response rating (0-100)” value ([10]; 31 g ai/ha) was 0, the “Oat, Wild plant response rating (0 to 100 scale)” value ([10]; 125 g ai/ha) was 90 and the “Soybean plant response rating (0-100)” value ([11]; 31 g ai/ha) was 10. The “Soybean plant response rating (0 to 100 scale)” value ([11]; 125 g ai/ha) was 0, the “Plant response rating, Ducksalad (0 to 100 scale, 0 is no effect and 100 is complete control)” value [12] was 0 and the “Plant response rating, Sedge, Umbrella (0 to 100 scale, 0 is no effect and 100 is complete control)” value [13] was 0. The “Plant response rating, Rice (0 to 100 scale, 0 is no effect and 100 is complete control)” value [14] was 0, the “Plant response rating, Barnyardgrass (0 to 100 scale, 0 is no effect and 100 is complete control)” value [15] was 0 and the “Barnyardgrass plant response rating (0-100)” value [16, 28] was 10. The “Barnyardgrass plant response rating (0 to 100 scale)” value [16, 29] was 100, the “Kochia plant response rating (0-100)” value [17, 28] was 20 and the “Kochia plant response rating (0 to 100 scale)” value [17, 29] was 80. For the same compound, the “Foxtail, Green plant response rating (0-100)” value [18, 28] was 20, the “Foxtail, Green plant response rating (0 to 100 scale)” value [18, 29] was 60 and the “Corn plant response rating (0-100)” value [19, 28] was 20. The “Corn plant response rating (0 to 100 scale)” value [19, 29] was 50, the “Ryegrass, Italian plant response rating (0-100)” value [20, 28] was 60 and the “Ryegrass, Italian plant response rating (0 to 100 scale)” value [20, 29] was 80. For the same compound, the “Amaranth, Palmer plant response rating (0-100)” value [21, 28] was 0, the “Amaranth, Palmer / Pigweed, Palmer plant response rating (0 to 100 scale)” value [21, 29] was 20 and the “Blackgrass plant response rating (0-100)” value [22, 28] was 50. For the same compound, the “Blackgrass plant response rating (0 to 100 scale)” value [22, 29] was 80, the “Horseweed plant response rating (0-100)” value [23, 28] was 0 and the “Horseweed plant response rating (0 to 100 scale)” value [23, 29] was 10. The “Ragweed plant response rating (0-100)” value [24, 28] was 0, the “Ragweed plant response rating (0 to 100 scale)” value [24, 29] was 0 and the “Wheat plant response rating (0-100)” value [25, 28] was 50. The “Wheat plant response rating (0 to 100 scale)” value [25, 29] was 60, the “Oat, Wild plant response rating (0-100)” value [26, 28] was 80 and the “Oat, Wild plant response rating (0 to 100 scale)” value [26, 29] was 90. The “Soybean plant response rating (0-100)” value [27, 28] was 30 and the “Soybean plant response rating (0 to 100 scale)” value [27, 29] was 50.
